The values below come from patent publication US4820715A, “Anti-emetic quinuclidinyl benzamides” (Bristol-Myers Company, priority 1987, dated 1989).

Structures can show the parent of a compound that is named as a salt. Where only a bound is given, the exact number is not on record here.

For test [1], the system named is Apomorphine-Induced Emesis. Kind of test: Antagonism of Apomorphine-Induced Emesis in Dogs. The test is classed as in vivo, beagle dogs. The settings on record: Canis lupus familiaris, sc; s.c. 30 minutes prior to apomorphine 0.3 mg/kg; dog; read-out: Antagonism of Apomorphine-Induced Emesis in the Dog ED50. How it is done: Unfasted beagle dogs of both sexes were used as test subjects. Test compounds and apomorphine were each administered subcutaneously as aqueous solutions, with the test compound being administered 30 minutes prior to the administration of the apormorphine.
Apomorphine was administered at a dose of 0.3 mg/kg. […] All tests were run in at least two dogs.

For a further test, the system named is Cisplatin-Induced Emesis. Kind of test: Antagonism of Cisplatin-Induced Emesis in the Ferret. It counts as in vivo, Fitch ferrets. The settings on record: Mustela putorius, iv, 4 h, i.v. × 2, read-out: Antagonism of Cisplatin-Induced Emesis in the Ferret, % Protection. An excerpt:
The ventral and dorsal area of the neck is shaved and a 3 cm incision is made. The left jugular vein is exposed and ligated with a silk suture at the cephalic end. The indwelling catheter is constructed of Silastic tubing 18 cm in length (0.020 inch I.D.×0.037 inch O.D.) with a 2 cm polyethylene sleeve (0.045 inch I.D.×0.062 inch O.D.) filled with heparin (1000 units/ml) and sealed at the exposed end with a 23 gauge×1 inch needle crimped at both ends. A small cut is made in the jugular and the catheter inserted, allowing the free end to be delivered through a 13 gauge×5 cm trochar under the skin and attached to the nape of the neck with a silk suture. The ferrets are housed in individual cages and allowed 2-4 days recovery before testing. On the test day, the test compounds were administered i.v. […] The cisplatin solution was prepared by adding 70° C. physiological saline, stirring and sonicating until dissolved. The resulting solution (4 mg/ml) was maintained at 40° C. and administered i.v. ([…]) via the catheter. Following administration of cisplatin, the ferrets were observed continuously for four hours and emetic episodes recorded. Two or more emetic episodes within a one-minutes period was considered as a single episode. The ferrets were euthanized with T-61 i.v. at the termination of the experiment, and proper placement of the catheter was verified.

Test [2] concerns the target dopaminergic (D2) receptors (Rattus norvegicus, UniProt P61169). Put plainly: biochemical. The test is classed as binding. The conditions noted are these: striatal rat brain homogenates, ^3H-spiperone, 37° C., 15 minutes; read-out: 3H-Spiperone Displacement IC50. How it is done:
Rats (150±10 g; Charles River) were decapitated, the corpus striatum dissected out and frozen on dry ice. The tissues were pooled and stored at -80° C. until used. Homogenates (Brinkmann Polytron) of the corpus striatum in cold HEPES.KOH buffer (final pH=7.4) were centrifuged at 39,000×G. The supernatant was discarded and the pellets were re-suspended in HEPES.KOH buffer and re-centrifuged as above.
Tests to determine the Inhibitory Concentration50 (IC50) of the compounds of Formula I and reference compounds versus ^3 H-spiperone were conducted as follows. Tubes containing either 100 μL of buffer mixture (for total binding), 100 μL of buffer mixture plus 100 μL of 10^-4 M D(+)-butaclamol (for blanks, i.e. non-specific binding), or 100 μL of buffer mixture containing 10^-7, 10^-6 or 10^-5 M test compound were prepared. To each were added 100 μL of a solution of ^3 H-spiperone (New England Nuclear) in buffer mixture (2000 c.p.m. in the incubation mixture) and 800 μL of the striatal tissue suspension. The tubes were then diluted to 1 mL with buffer mixture, giving a final concentration of 10^-8, 10^-7 or 10^-6 M test compound and approximately 100 pM ^3 H-spiperone. The samples were incubated at 37° C. for 15 minutes, filtered in vacuo on glass fiber filters and counted by liquid scintillation spectrometry. […] All samples were run in duplicate.

The subject of test [3] is field-stimulated guinea pig ileum. Put plainly: Gastrokinetic Activity: contraction of field-stimulated guinea pig ileum preparations. Also noted: species or system guinea pig (Hartley). The settings on record: Cavia porcellus; for EC30: effective concentration30, read-out: EC30 (95% C.L.); for EC50: effective concentration50, read-out: EC50 (95% C.L.); for minimal effective concentration: read-out: Minimum Effective Concentration. The method, then:
This activity is considered to be correlated with gastrokinetic (prokinetic) activity in vivo, i.e. enhancement of gastric motility and gastric emptying.
Normal, male guinea pigs (Hartley; Charles River) weighing […] are sacrificed by cervical dislocation. The terminal portion of the ileum was removed after discarding a 10 cm segment nearest to the ileocecal junction. The strips, 3-4 cm in length, were mounted in a 20 ml organ bath containing Krebs physiological buffer solution. The buffer was bubbled with 95% O2 -5% CO2 and kept at 37° C. The resting tension was adjusted to 1.0 g, and the tissues were equilibrated without stimulation for 15 minutes. For electrical stimulation, a platinum wire (cathode) was threaded up through the lumen and another platinum wire (anode) was attached to the glass rod that suspended the muscle. Tissues were stimulated coaxially at 1.5 times the voltage necessary to produce maximum twitch height, with single pulses, 0.5 msec in duration, delivered once every 10 seconds. After the 15 minute equilibration period (without stimulation), the stimulator (Grass S88 Stimulator) was turned on and the tissues were allowed to stabilize for approximately 1 hour, or until the twitch height remained constant, with washes every 20 minutes.

Setting [4] is: read-out: Average % Maximum Increase.

Sequence of dopaminergic (D2) receptors (P61169 whole entry): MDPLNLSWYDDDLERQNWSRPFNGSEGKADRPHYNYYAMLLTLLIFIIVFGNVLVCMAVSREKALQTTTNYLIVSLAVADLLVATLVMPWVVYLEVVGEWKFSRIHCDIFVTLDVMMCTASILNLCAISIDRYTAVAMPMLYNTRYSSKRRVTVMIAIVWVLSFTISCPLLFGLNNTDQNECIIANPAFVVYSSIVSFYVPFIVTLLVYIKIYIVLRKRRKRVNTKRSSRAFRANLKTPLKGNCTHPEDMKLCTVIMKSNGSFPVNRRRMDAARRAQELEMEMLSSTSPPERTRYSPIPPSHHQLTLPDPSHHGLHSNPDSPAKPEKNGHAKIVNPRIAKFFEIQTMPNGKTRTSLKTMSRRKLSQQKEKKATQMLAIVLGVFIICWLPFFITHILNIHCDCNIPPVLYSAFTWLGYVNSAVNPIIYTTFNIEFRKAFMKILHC

`CCN(CC)CCNC(=O)c1cc(Cl)c(N)cc1OCCN` [Example 47, 4-Amino-2-(2-aminoethoxy)-5-chloro-N-[2-(diethylamino)ethyl]benzamide]: in test [1], the ED50 (in general, the dose that gives a 50% effect, or the effect in half of the subjects) is more than 3 mg/kg. Besides, the inhibition in vivo at 3 mg/kg in the test with Cisplatin-Induced Emesis amounted to 8%. Besides, the IC50 (in general, the concentration that inhibits the measured activity by half) in test [2] was more than 1000 nM.

As to `CC(=O)C(C)Oc1cc(N)c(Cl)cc1C(=O)NCCN(C)C` (stereo not drawn) [Example 32, 4-Amino-2-(2-butanon-3-yl)oxy-5-chloro-N-[2-(dimethylamino)ethyl]benzamide], the ED50 in test [1] was more than 3 mg/kg. In the test on Cisplatin-Induced Emesis (1 mg/kg), the inhibition in vivo at 1 mg/kg was 72%. In addition, the IC50 in test [2] was more than 1000 nM.

In the case of `CCN(CC)CCNC(=O)c1cc(Cl)c(N)cc1OCCOC(C)=O` [Example 57, 2-(2-Acetoxyethoxy)-4-amino-5-chloro-N-[2-(diethylamino)ethyl]-benzamide], in test [1], the ED50 is more than 3 mg/kg. The inhibition in vivo at 3 mg/kg with Cisplatin-Induced Emesis turned out to be 66%. The IC50 in test [2] was more than 1000 nM.

`CO[C@@H]1CN(CCCOc2ccc(F)cc2)CC[C@@H]1NC(=O)c1cc(Cl)c(N)cc1OCCSC.O` (relative stereo) [Example 61, Cis-4-amino-5-chloro-N-{1-[3-(4-fluorophenoxy)propyl]-3-methoxy-4-piperidinyl}-2-[2-(methylthio)ethoxy]benzamide monohydrate]: in test [1], the ED50 was more than 3 mg/kg. Moreover, the inhibition in vivo at 3 mg/kg in the test with Cisplatin-Induced Emesis is 71%. Moreover, the IC50 in test [2] turned out to be 760 nM.

For the compound `CCOC(=O)C(Oc1cc(N)c(Cl)cc1C(=O)NCCN(CC)CC)c1ccccc1` (stereo not drawn) [Example 35, α-{3-Amino-4-chloro-6-[N-(2-[diethylamino]ethyl)]carbomoylphenoxy}phenylacetic acid, ethyl ester], in test [1], the 50% effective dose (ED50) was more than 3 mg/kg. In the test with Cisplatin-Induced Emesis, the inhibition in vivo at 3 mg/kg was 72%. Besides, in test [2], the IC50 is more than 1000 nM.

On to `COc1cc(N)c(Cl)cc1C(=O)NC1CCN(Cc2ccccc2)CC1` [Clebopride, reference compound], for which the ED50 in test [1] stood at 0.04 mg/kg. Moreover, in the test with Cisplatin-Induced Emesis, the inhibition in vivo at 3 mg/kg was 70%. Also, the IC50 in test [2] stood at 11 nM.

On to `CCN(CC)CCNC(=O)c1cc(Cl)c(N)cc1OCC(C)=NOC` [Example 11, 4-Amino-5-chloro-N-[2-(diethylamino)ethyl]-2-[(2-methoxyimino)propan-1-yl]oxybenzamide], for which the ED50 in test [1] was more than 3 mg/kg. Besides, the inhibition in vivo at 3 mg/kg with Cisplatin-Induced Emesis amounted to 90%. The IC50 in test [2] was more than 1000 nM.

On to `CCN(CC)CCNC(=O)c1cc(Cl)c(N)cc1OCC(=O)N(C)C` [Example 55], for which the ED50 in test [1] is more than 3 mg/kg. Further, the inhibition in vivo at 3 mg/kg in the test on Cisplatin-Induced Emesis was determined as 66%. Moreover, the IC50 in test [2] is more than 1000 nM.

Regarding `CCN(CC)CCNC(=O)c1cc(Cl)c(N)cc1OCC1CNC(=O)O1` (stereo not drawn) [Example 44, 4-Amino-5-chloro-N[2-(diethylamino)ethyl]-2-(oxazolidin)-2-one-5-ylmethyl)oxybenzamide Fumarate], the ED50 in test [1] was more than 3 mg/kg. Besides, the inhibition in vivo at 3 mg/kg with Cisplatin-Induced Emesis is 71%. In addition, the IC50 in test [2] was more than 1000 nM.

For the compound `C=CCC(C)(Oc1cc(N)c(Cl)cc1C(=O)NCCN(CC)CC)C(C)=O` (stereo not drawn) [Example 8, 4-Amino-5-chloro-N-[2-(diethylamino)ethyl]-2-[(3-methyl)-5-hexen-2-on-3-yl]oxybenzamide], the ED50 in test [1] was more than 3 mg/kg. Further, the inhibition in vivo at 3 mg/kg with Cisplatin-Induced Emesis turned out to be 95%. For the same compound, the IC50 in test [2] was more than 1000 nM.

Regarding `CO[C@@H]1CN(CCCOc2ccc(F)cc2)CC[C@@H]1NC(=O)c1cc(Cl)c(N)cc1OCC(N)=O` (relative stereo) [Example 62, Cis-4-amino-2-(2-amino-2-oxoethoxy)-5-chloro-N-{1-[3-(4-fluorophenoxy)propyl]-3-methoxy-4-piperidinyl}benzamide sesquihydrate], the ED50 in test [1] was more than 3 mg/kg. Also, the inhibition in vivo at 3 mg/kg in the test with Cisplatin-Induced Emesis stood at 71%. Moreover, in test [2], the IC50 is more than 1000 nM.

On to `CCN(CC)CCNC(=O)c1cc(Cl)c(N)cc1OCCCN` [Example 39, 4-Amino-2-(3-aminopropoxy)-5-chloro-N-[2-(diethylamino)ethyl]benzamide], for which the ED50 in test [1] is more than 3 mg/kg. Further, the inhibition in vivo at 3 mg/kg with Cisplatin-Induced Emesis turned out to be 71%. Moreover, the half-inhibitory concentration (IC50) in test [2] was more than 1000 nM.

Consider `CCN(CC)CCNC(=O)c1cc(Cl)c(N)cc1OC` [Metoclopramide, reference compound], for which, in test [1], the ED50 came to 0.5 mg/kg. For the same compound, the inhibition in vivo at 3 mg/kg in the test with Cisplatin-Induced Emesis amounted to 89%. Besides, the activation at 30 µM in test [3] (setting [4]) is 62%. Moreover, in test [3], the EC30 (usually the concentration needed for an effect of 30%) was 1600 nM, the EC50 (commonly the concentration needed to bring the measured effect to its halfway point) is 11000 nM and the minimal effective concentration amounted to 0.03 µM.

Turning to `CCN(CC)CCNC(=O)c1cc(Cl)c(N)cc1OCc1cc(C)no1` [Example 19, 4-Amino-5-chloro-N-[2-(diethylamino)ethyl]-2-(3-methylisoxazol-5-yl)methoxybenzamide], in test [1], the ED50 is more than 3 mg/kg. For the same compound, in the test on Cisplatin-Induced Emesis, the inhibition in vivo at 3 mg/kg was determined as 72%. In addition, the activation at 3 µM in test [3] (at 3 μM, read-out: Average % Maximum Increase) is 39%. Besides, in test [3], the EC30 came out at 1700 nM, the EC50 is 5900 nM and the minimal effective concentration turned out to be 0.1 µM.

Take `CCN(CC)CCNC(=O)c1cc(Cl)c(N)cc1OCC(=O)c1cccs1` [Example 52, 4-Amino-5-chloro-N-[2-(diethylamino)ethyl]-2-(2-thienoylmethoxy)benzamide]: the ED50 in test [1] was more than 3 mg/kg. Further, the inhibition in vivo at 3 mg/kg in the test on Cisplatin-Induced Emesis is 95%.

On to `CCN(CC)CCNC(=O)c1cc(Cl)c(N)cc1OCCOCCOC` [Example 46, 4-Amino-5-chloro-N-[2-(diethylamino)ethyl]-2-(2-methoxyethoxyethyl)oxybenzamide], for which, in test [1], the ED50 was more than 3 mg/kg. The inhibition in vivo at 3 mg/kg in the test on Cisplatin-Induced Emesis was determined as 76%.

As for `CCN(CC)CCNC(=O)c1cc(Cl)c(N)cc1OC(C)C#N` (stereo not drawn) [Example 14, 4-Amino-5-chloro-[2-(diethylamino)ethyl]-2-(1-cyano)ethoxybenzamide], in test [1], the ED50 was more than 3 mg/kg. In the test with Cisplatin-Induced Emesis, the inhibition in vivo at 3 mg/kg was found to be 62%. For the same compound, in test [3] (setting [4]), the activation at 30 µM stood at 55%. Moreover, in test [3], the EC30 was 4300 nM, the EC50 was found to be 18000 nM and the minimal effective concentration was 0.1 µM.

On to `CCN(CC)CCNC(=O)c1cc(Cl)c(N)cc1OCC1=NCCN1` [Example 51, 4-Amino-5-chloro-N-[2-(diethylamino)ethyl]-2-(1H-4,5-dihydroimidazol-2-yl)methoxybenzamide], for which the ED50 in test [1] was more than 3 mg/kg. The inhibition in vivo at 3 mg/kg in the test on Cisplatin-Induced Emesis was 71%. Besides, the activation at 10 µM in test [3] (at 10 μM, read-out: Average % Maximum Increase) turned out to be 51%. In addition, in test [3], the EC30 is 230 nM, the EC50 is 5000 nM and the minimal effective concentration worked out at 0.03 µM.

For `CCN(CC)CCNC(=O)c1cc(Cl)c(N)cc1OCC(=O)OC` [Example 15, 4-Amino-5-chloro-N-[2-(diethylamino)ethyl]-2-(2-methoxy-2-oxoethoxy)benzamide], the 50% effective dose (ED50) in test [1] is more than 3 mg/kg. In the test on Cisplatin-Induced Emesis, the inhibition in vivo at 3 mg/kg was determined as 30%.
